Ten compounds from patent US11192849B2, “Compounds, compositions, and methods for modulating ferroptosis and treating excitotoxic disorders” (THE TRUSTEES OF COLUMBIA UNIVERSITY IN THE CITY OF NEW YORK, priority 2013, dated 2021) can be followed below.

Like-named read-outs stand apart in the source and are kept apart here. Non-standard residues stand in square brackets, D forms with d. Residues, ends and D or L forms follow the SMILES beside them. *: point of attachment. Nle = CCCC[C@H](N)C(=O)O; Cbz = O=C(OCc1ccccc1)*; CH2F = FC*

The test system of data set [1] is HT-1080, BJeLR and Calu-1 cells. The data set can be described thus: Modulatory profiling of cell death inhibitors against erastin. It is filed as cell-based, human. To be noted: erastin 10 μM, 24 hours; 10-point, 4-fold dilution series. How it is done:
The day before the experiment, cells were seeded in black, 384-well clear bottom plates (Corning) at a density of 1,000 cells/well using a Beckman Biomek FX Workstation. All compounds (except 3-methyladenine and chloroquine, which were diluted in water) were diluted in DMSO at 250 times the final highest test concentration, and aliquoted across a 384-well plate (Greiner, Monroe, N.C.). A ten-point, 4-fold dilution series of each inhibitor in DMSO was made using a multichannel pipette. Replicates of this mother plate were stored at −20° C. […] Medium was removed from cells and replaced with 36 μL medium containing DMSO (0.1%) or erastin (10 μM final concentration). Using the Biomek FX, 4 μL were then transferred from each inhibitor daughter plate into the DMSO-containing or erastin-containing assay plates. For 3-methyladenine and chloroquine, inhibitors were prepared fresh in media at 10-fold the final concentration in the presence of DMSO or 10 μM erastin. These solutions were manually pipetted onto cells in 384-well format. Assay plates were incubated at 37° C. for 24 hours. Viability was assessed using Alamar Blue.
The modulatory effect (Me) for drug-drug interactions was computed as follows. First, plate-based background correction was performed using Alamar Blue values from empty (cell-free) wells included on each plate. Next, within each experiment, 100% viability is determined as the average Alamar Blue score for cells treated with modulator=DMSO and lethal=DMSO, and all Alamar Blue values were scaled from 0 to 1 with the DMSO×DMSO condition=1. The individual effects of each modulator and lethal (e.g. in the presence of DMSO) at all tested doses were then ascertained. […] Next, BExp was compared to the actual observed viability. […] By default, Me in DMSO-treated cells is equal to 0. […] Me values for each inhibitor-lethal drug combination were hierarchically clustered and plotted as a heatmap using the heatmaps.2 function of the gplots library in R.

Data set [2] can be described thus: In vitro stability study in mouse plasma. It is filed as in vitro ADME. How it is done:
The assay was conducted by incubating 1 μM of test compounds with Mouse Plasma (Strain […]) for a series of incubation times (0, 15, 30, 60, 120 minutes) at various temperatures (wet ice, room temperature, or 37° C.) with 5% CO2 and shaking (130 rpm). At each time point, the samples were quenched with 200 μL of stop solution containing an internal standard and kept on ice. The samples were analysed by LC-MS/MS.

For the next data set, the system named is HT-1080 cells. The experiment in a line: Inhibition of erastin (10 μM)-induced death in HT-1080 cells (Alamar Blue). It is filed as cell-based, human. To be noted: for EC50: Homo sapiens, read-out: EC50. How it is done:
Cell viability was typically assessed in 384-well format by Alamar Blue (Invitrogen) fluorescence (ex/em 530/590) measured on a Victor3 platereader (Perkin Elmer, Waltham, Mass.). In some experiments, Trypan Blue dye exclusion counting was performed using an automated cell counter (ViCell, Beckman-Coulter Inc., Brea, Calif.). Cell viability in test conditions is reported as a percentage relative to the negative control treatment.
The ability of various compounds disclosed herein to inhibit death in erastin (10 μM)-treated HT-1080 cells were tested. Cell viability was assessed by Alamar Blue. EC50 values (nM) were computed from dose response curves.
HT-1080 cells are cultured in DMEM containing 10% fetal bovine serum, 1% supplemented non-essential amino acids and 1% pen/strep mixture (Gibco) and maintained in a humidified environment at 37° C. with 5% CO2 in a tissue culture incubator. 1,000 HT-1080 cells are seeded per well in duplicate 384-well plates (Corning) using a BioMek FX liquid handling robot (Beckman Coulter). The next day, the medium is replaced with 36 μL of medium containing 10 μM erastin with 4 μL of medium containing a dilution series (previously prepared) of DMSO, Fer-1 (positive control) or Fer-1 analogs. 24 hours later, 10 μL Alamar Blue (Invitrogen) cell viability solution is added to the growth media to a final concentration of 10%. Cells are incubated a further 6 hours and then the Alamar Blue fluorescence intensity recorded using a Victor 3 platereader (PerkinElmer)(ex/em 530/590). All experiments are performed at least twice and the background (no cells)-subtracted Alamar Blue values for each combination are averaged between replicates.
(Alamar Blue is a resazurin reagent that responds to reducing activity.)

A short description of data set [3]: Metabolic stability in mouse liver microsomes. It is filed as in vitro ADME. The conditions noted are these: for Elimination rate constant (k) / Intrinsic Clearance (CLint) (mL/min/g liver): Mouse; for half-life at 0.5 μM: mouse, liver microsomes. How it is done:
Test compounds (0.5 μM) were incubated at 37° C. for up to 45 minutes in 50 mM of potassium phosphate buffer (pH 7.4) containing mouse liver microsomal protein (0.5 mg/mL) and an NADPH generating system (0.34 mg/mL β-nicotinamide adenine dinucleotide phosphate (NADP), 1.56 mg/mL glucose-6-phosphate, 1.2 units/mL glucose-6-phosphate dehydrogenase). At 0, 5, 15, 30, and 45 minute intervals, an aliquot was taken and quenched with acetonitrile (ACN) containing internal standard. No-cofactor controls at 45 minutes were prepared. Following completion of the experiment, the samples were analyzed by LC-MS/MS.
The half-life (t1/2) was calculated using the following equation: t1/2=0.693/k Where, k is the elimination rate constant of test compounds obtained by fitting the data to the equation: C=initial×exp(−k×t) Intrinsic clearance (Clint) is calculated as liver clearance from the half-life using the following equation: […]
0.5 mg protein/mL incubation
Ethoxycoumarin was used as a control.
(Liver microsomes are vesicles of endoplasmic reticulum, rich in cytochrome P450 enzymes.)

Setting [4] is: HT-1080, Table 1 (Example 10), erastin (10 μM)-treated HT-1080 cells.
The mark [5] stands for this setting: pH 7.4, Mouse, Compound Conc = 0.5 μM, read-out: Half life (t½).

On to `CCCC[C@@H](C=O)NC(=O)[C@H](CC(C)C)NC(=O)[C@H](CC(C)C)NC(C)=O` [ALLN, N-Acetyl-Leu-Leu-Nle-CHO] (Ac-Leu-Leu-[Nle]-aldehyde), for which the “modulation of erastin-induced death” value in data set [1] is recorded as “not consistently modulated”.

The EC50 is the concentration that produces a half-maximal response. For the compound `CC(C)OC(=O)c1ccc(NC23CC4CC(CC(C4)C2)C3)c(/N=C\c2cncnc2)c1` [SRS16-80, isopropyl 4-(adamantylamino)-3-(pyrimidin-5-ylmethyleneamino)benzoate], in data set [2], the “mouse plasma stability” value is on record as “rapidly hydrolyzed”. The “Percent Remaining” value in data set [2] (37° C., 0 minutes) came out at 100.0%; in data set [2] (37° C., 15 minutes), 23.8%; in data set [2] (37° C., 30 minutes) it was 9.9%; in data set [2] (37° C., 60 minutes), 4.5%; in data set [2] (37° C., 120 minutes), 2.5%. Also, the “Sum of Peak Area Ratios” value is 0.382 in data set [2] (37° C., 0 minutes); 0.0911 in data set [2] (37° C., 15 minutes); 0.0379 in data set [2] (37° C., 30 minutes); 0.017 in data set [2] (37° C., 60 minutes); 0.0095 in data set [2] (37° C., 120 minutes). The half-life at 1 μM in data set [2] (C57BL/4, mouse, plasma, read-out: T1/2 in mouse plasma) is below 0.25 h. Also, in the data set on HT-1080 cells (HT-1080, erastin (10 μM)), the “fold lower potency caused by the imine” value is recorded as “about 6 fold”. In addition, the EC50 is around 300 nM with HT-1080 cells (HT-1080, Example 15, erastin (10 μM), HT-1080) and 583 nM in the data set on HT-1080 cells (setting [4]). Moreover, the “Elimination rate constant (k)” value in data set [3] (Compound Conc = 0.5 μM) turned out to be 0.0089. The “Intrinsic Clearance (CLint) (mL/min/g liver)” value (from here on “Intrinsic Clearance (CLint)”) in data set [3] (Compound Conc = 0.5 μM) came to 0.94 mL/min/g liver. Further, the half-life at 0.5 μM in data set [3] (setting [5]) was determined as 1.29 h; in data set [3] (pH 7.4, stated in the text of Example 15, read-out: T1/2 in mouse liver microsomes), 2.57 h.

On to `CO/C1=C\C(C)=C\[C@@H](C)[C@@H](O)[C@@H](C)C/C(C)=C/C=C/[C@H](OC)[C@@H]([C@@H](C)[C@@H](O)[C@H](C)[C@@]2(O)C[C@@H](O)[C@H](C)[C@@H](C(C)C)O2)OC1=O` [bafilomycin A1], for which the “modulation of erastin-induced death” value in data set [1] is reported as “not consistently modulated”.

On to `CCOC(=O)[C@H]1O[C@@H]1C(=O)N[C@@H](CC(C)C)C(=O)NCCC(C)C` (relative stereo) [Compound E64d, (2S,3S)-trans-epoxysuccinyl-L-leucylamido-3-methylbutane ethyl ester], for which the “modulation of erastin-induced death” value in data set [1] is “not consistently modulated”.

`COC(=O)CC(NC(=O)C(C)NC(=O)C(NC(=O)OCc1ccccc1)C(C)C)C(=O)CF` (stereo not drawn) [z-VAD-fmk, carbobenzyloxy-valyl-alanyl-aspartyl-[O-methyl]-fluoromethylketone] (Cbz-Val-Ala-Asp(OMe)-CH2F; configuration not given here): the “modulation of erastin-induced death” value in data set [1] is “not consistently modulated”.

In the case of `CCOC(=O)c1ccc(NC23CC4CC(CC(C4)C2)C3)c(NCc2cncnc2)c1` [SRS16-41, ethyl 4-(adamantylamino)-3-(pyrimidin-5-ylmethylamino)benzoate], the “Peak Area Ratio” value in data set [2] (Room Temperature, 0 min) was 5.8556; in data set [2] (Room Temperature, 15 min) it was 0.6709; in data set [2] (Room Temperature, 30 min) it was 0.0885; in data set [2] (Room Temperature, 60 min), 0.0206; in data set [2] (Room Temperature, 120 min), 0.0159; in data set [2] (Wet Ice, 0 min), 6.9233. Also, the “Peak Area Ratio” value is 5.7631 in data set [2] (Wet Ice, 15 min); 4.7595 in data set [2] (Wet Ice, 30 min); 3.4547 in data set [2] (Wet Ice, 60 min); 1.9564 in data set [2] (Wet Ice, 120 min). Moreover, the “Percent Remaining” value in data set [2] (Room Temperature, 0 min) worked out at 100.0%; in data set [2] (Room Temperature, 15 min), 11.5%; in data set [2] (Room Temperature, 30 min) it was 1.5%; in data set [2] (Room Temperature, 60 min), 0.4%; in data set [2] (Room Temperature, 120 min), 0.3%; in data set [2] (Wet Ice, 0 min), 100.0%. Besides, the “Percent Remaining” value is given as 83.2% in data set [2] (Wet Ice, 15 min); 68.7% in data set [2] (Wet Ice, 30 min); 49.9% in data set [2] (Wet Ice, 60 min); 28.3% in data set [2] (Wet Ice, 120 min). Further, the EC50 in the data set with HT-1080 cells (setting [4]) was found to be 16 nM. Besides, the “Elimination rate constant (k)” value in data set [3] (Compound Conc = 0.5 μM) was 0.3149. For the same compound, in data set [3] (Compound Conc = 0.5 μM), the “Intrinsic Clearance (CLint)” value is listed as 35.9 mL/min/g liver. Also, the half-life at 0.5 μM in data set [3] (setting [5]) came out at 0.0333 h.

As for `Cn1cnc(N)c2ncnc1-2` [3-methyladenine], the “modulation of erastin-induced death” value in data set [1] is given as “not consistently modulated”.

Turning to `CCN(CC)CCCC(C)Nc1ccnc2cc(Cl)ccc12` (centres unmarked) [chloroquine], the “modulation of erastin-induced death” value in data set [1] is “not consistently modulated”.

As to `CCOC(=O)c1ccc(NC23CC4CC(CC(C4)C2)C3)c(/N=C\c2cncnc2)c1` [SRS15-72, ethyl 4-(adamantylamino)-3-(pyrimidin-5-ylmethyleneamino)benzoate], the “Peak Area Ratio” value in data set [2] (Room Temperature, 0 min) is on record as 2.0737; in data set [2] (Room Temperature, 15 min), 1.1581; in data set [2] (Room Temperature, 30 min) it was 0.5320; in data set [2] (Room Temperature, 60 min), 0.2502; in data set [2] (Room Temperature, 120 min) it was 0.0841; in data set [2] (Wet Ice, 0 min), 2.6066. In addition, the “Peak Area Ratio” value in data set [2] (Wet Ice, 15 min) is 2.0815; in data set [2] (Wet Ice, 30 min) it was 1.6279; in data set [2] (Wet Ice, 60 min) it was 1.4397; in data set [2] (Wet Ice, 120 min), 1.2446. The “Percent Remaining” value was determined as 100.0% in data set [2] (Room Temperature, 0 min); 55.8% in data set [2] (Room Temperature, 15 min); 25.7% in data set [2] (Room Temperature, 30 min); 12.1% in data set [2] (Room Temperature, 60 min); 4.1% in data set [2] (Room Temperature, 120 min); 100.0% in data set [2] (Wet Ice, 0 min). Besides, the “Percent Remaining” value is 79.9% in data set [2] (Wet Ice, 15 min); 62.5% in data set [2] (Wet Ice, 30 min); 55.2% in data set [2] (Wet Ice, 60 min); 47.7% in data set [2] (Wet Ice, 120 min). Further, the EC50 with HT-1080 cells (setting [4]) worked out at 288 nM. The “Elimination rate constant (k)” value in data set [3] (Compound Conc = 0.5 μM) is on record as 0.0045. The “Intrinsic Clearance (CLint)” value in data set [3] (Compound Conc = 0.5 μM) was 0.47 mL/min/g liver. In data set [3] (setting [5]), the half-life at 0.5 μM came to 2.57 h.

On to `C[C@@H]1C[C@@H]([C@H](O)CC2CC(=O)NC(=O)C2)C(=O)[C@@H](C)C1` [CHX, cycloheximide], for which the “modulation of erastin-induced death” value in data set [1] was “to a weaker extent”.
